What was measured:
[1] = system: metastatic renal cell carcinoma (mRCC); type: in vivo, human; details: rise in MMP-9 and SCF and fall in SHBG and SAP
advanced solid tumors = details: 21 patients, cited from earlier work
[2] = system: metastatic renal cell carcinoma (mRCC); experiment: Randomized phase II: 6MPFS, PFS, response; type: in vivo, human
[3] = Phase I PK of everolimus in whole blood; type: in vivo, human; details: 6-hour collection interval, everolimus 10 mg daily
[4] = cited from earlier work
[5] = Randomized phase II: adverse events; type: in vivo, human
[6] = system: metastatic renal cell carcinoma (mRCC); details: subset with one prior VEGF-TKI; ref RECORD-1 trial; cited from earlier work

COc1cc(C(=O)c2c(C)oc3c(OP(=O)([O-])[O-])c(OC)ccc23)cc(OC)c1OC.[Na+].[Na+] [BNC105P]
16 mg/m^2: intravenous dose identified for further studies (advanced solid tumors; days 1 and 8 of a 21-day cycle)
4 patients: patients with stable disease (SD) as best response (advanced solid tumors)
no objective responses: objective responses (advanced solid tumors)
60%: patients progression free at 6 months, selected population [1]

CO[C@H]1C[C@@H]2CC[C@@H](C)[C@@](O)(O2)C(=O)C(=O)N2CCCC[C@H]2C(=O)O[C@H]([C@H](C)C[C@@H]2CC[C@@H](OCCO)[C@H](OC)C2)CC(=O)[C@H](C)/C=C(\C)[C@@H](O)[C@@H](OC)C(=O)[C@H](C)C[C@H](C)/C=C/C=C/C=C/1C [everolimus]
2.8 months: median PFS amongst patients with liver metastasis ([2]; phase II exploratory analysis)
7: Elevated ALT Grade 1/2 ([5]; laboratory, number of patients) | Elevated ALT Total ([5]; laboratory, number of patients) | Abdominal pain Total ([5]; number of patients) | Acneiform rash Grade 1/2 ([5]; number of patients) | Acneiform rash Total ([5]; number of patients)
25.4%: Hyperglycemia % ([5]; laboratory, % of arm)
5.4 months: median PFS [6]
16.4%: Headache % ([5]; % of arm) | Insomnia % ([5]; % of arm) | Nausea/Vomiting % ([5]; % of arm)
14: Cough Total ([5]; number of patients) | Nausea Grade 1/2 ([5]; number of patients) | Skin changes Total ([5]; number of patients)
3: Elevated creatinine Grade 3/4 ([5]; laboratory, number of patients) | Hyponatremia Grade 3/4 ([5]; laboratory, number of patients) | Skin changes Grade 3/4 ([5]; number of patients)
37.3%: Low hemoglobin % ([5]; laboratory, % of arm)
6: Low hemoglobin Grade 3/4 ([5]; laboratory, number of patients) | Back pain Grade 3/4 ([5]; number of patients) | Fatigue Grade 3/4 ([5]; number of patients) | Stomatitis Grade 3/4 ([5]; number of patients)
17: Hyperglycemia Total ([5]; laboratory, number of patients) | Hypertriglyceridemia Grade 1/2 ([5]; laboratory, number of patients) | Dyspnea Grade 1/2 ([5]; number of patients)
10.4%: Abdominal pain % ([5]; % of arm) | Acneiform rash % ([5]; % of arm) | Elevated ALT % ([5]; laboratory, % of arm)
1: Elevated alkaline phosphatise Grade 3/4 ([5]; laboratory, number of patients) | Anorexia Grade 3/4 ([5]; number of patients) | Cough Grade 3/4 ([5]; number of patients) | Extremity pain Grade 3/4 ([5]; number of patients) | Headache Grade 3/4 ([5]; number of patients) | Pruritus Grade 3/4 ([5]; number of patients)
18: Back pain Total ([5]; number of patients)
8: Elevated AST Grade 1/2 ([5]; laboratory, number of patients) | Elevated AST Total ([5]; laboratory, number of patients) | Elevated creatinine Total ([5]; laboratory, number of patients) | Hyponatremia Total ([5]; laboratory, number of patients) | Thrombocytopenia Grade 1/2 ([5]; laboratory, number of patients) | Epistaxis/Respiratory tract hemorrhage Grade 1/2 ([5]; number of patients) | Epistaxis/Respiratory tract hemorrhage Total ([5]; number of patients) | Extremity pain Grade 1/2 ([5]; number of patients)
25: Low hemoglobin Total ([5]; laboratory, number of patients)
19: Hypercholesterolemia Grade 1/2 ([5]; laboratory, number of patients) | Hypercholesterolemia Total ([5]; laboratory, number of patients) | Low hemoglobin Grade 1/2 ([5]; laboratory, number of patients) | Stomatitis Total ([5]; number of patients)
28.4%: Stomatitis % ([5]; % of arm) | Hypercholesterolemia % ([5]; laboratory, % of arm)
30: Fatigue Total ([5]; number of patients)
12: Hyperglycemia Grade 1/2 ([5]; laboratory, number of patients) | Back pain Grade 1/2 ([5]; number of patients) | Fever Total ([5]; number of patients)
13.2 ng/mL: mean trough concentration at steady state ([4]; patients who received 10 mg everolimus daily)
16: Anorexia Total ([5]; number of patients) | Diarrhea Grade 1/2 ([5]; number of patients) | Diarrhea Total ([5]; number of patients) | Nausea Total ([5]; number of patients)
24: Fatigue Grade 1/2 ([5]; number of patients)
22.4%: Constipation % ([5]; % of arm) | Rash % ([5]; % of arm)
5: Elevated creatinine Grade 1/2 ([5]; laboratory, number of patients) | Hyperglycemia Grade 3/4 ([5]; laboratory, number of patients) | Hyponatremia Grade 1/2 ([5]; laboratory, number of patients) | Abdominal pain Grade 1/2 ([5]; number of patients) | Pruritus Total ([5]; number of patients)
44.8%: Fatigue % ([5]; % of arm)
19.4%: Lower extremity % ([5]; % of arm)
4: Hypertriglyceridemia Grade 3/4 ([5]; laboratory, number of patients) | Dyspnea Grade 3/4 ([5]; number of patients) | Pruritus Grade 1/2 ([5]; number of patients)
23.9%: Anorexia % ([5]; % of arm) | Diarrhea % ([5]; % of arm) | Nausea % ([5]; % of arm)
26 to 38 h: half-life [4]
31.3%: Dyspnea % ([5]; % of arm) | Hypertriglyceridemia % ([5]; laboratory, % of arm)
14.9%: Proteinuria % ([5]; % of arm) | Taste alteration % ([5]; % of arm) | Elevated alkaline phosphatise % ([5]; laboratory, % of arm) | Thrombocytopenia % ([5]; laboratory, % of arm)
17.9%: Fever % ([5]; % of arm)
0: Elevated ALT Grade 3/4 ([5]; laboratory, number of patients) | Elevated ALT Grade 5 ([5]; laboratory, number of patients) | Elevated AST Grade 3/4 ([5]; laboratory, number of patients) | Elevated AST Grade 5 ([5]; laboratory, number of patients) | Elevated alkaline phosphatise Grade 5 ([5]; laboratory, number of patients) | Elevated creatinine Grade 5 ([5]; laboratory, number of patients) | Hypercholesterolemia Grade 3/4 ([5]; laboratory, number of patients) | Hypercholesterolemia Grade 5 ([5]; laboratory, number of patients) | Hyperglycemia Grade 5 ([5]; laboratory, number of patients) | Hypertriglyceridemia Grade 5 ([5]; laboratory, number of patients) | Hyponatremia Grade 5 ([5]; laboratory, number of patients) | Low hemoglobin Grade 5 ([5]; laboratory, number of patients) | Thrombocytopenia Grade 5 ([5]; laboratory, number of patients) | Abdominal pain Grade 5 ([5]; number of patients) | Acneiform rash Grade 3/4 ([5]; number of patients) | Acneiform rash Grade 5 ([5]; number of patients) | Anorexia Grade 5 ([5]; number of patients) | Back pain Grade 5 ([5]; number of patients) | Constipation Grade 3/4 ([5]; number of patients) | Constipation Grade 5 ([5]; number of patients) | Cough Grade 5 ([5]; number of patients) | Diarrhea Grade 3/4 ([5]; number of patients) | Diarrhea Grade 5 ([5]; number of patients) | Dyspnea Grade 5 ([5]; number of patients) | Epistaxis/Respiratory tract hemorrhage Grade 3/4 ([5]; number of patients) | Epistaxis/Respiratory tract hemorrhage Grade 5 ([5]; number of patients) | Extremity pain Grade 5 ([5]; number of patients) | Fatigue Grade 5 ([5]; number of patients) | Fever Grade 5 ([5]; number of patients) | Headache Grade 5 ([5]; number of patients) | Insomnia Grade 3/4 ([5]; number of patients) | Insomnia Grade 5 ([5]; number of patients) | Lower extremity Grade 3/4 ([5]; number of patients) | Lower extremity Grade 5 ([5]; number of patients) | Nausea Grade 5 ([5]; number of patients) | Nausea/Vomiting Grade 5 ([5]; number of patients) | Proteinuria Grade 3/4 ([5]; number of patients) | Proteinuria Grade 5 ([5]; number of patients) | Pruritus Grade 5 ([5]; number of patients) | Rash Grade 3/4 ([5]; number of patients) | Rash Grade 5 ([5]; number of patients) | Skin changes Grade 5 ([5]; number of patients) | Stomatitis Grade 5 ([5]; number of patients) | Taste alteration Grade 3/4 ([5]; number of patients) | Taste alteration Grade 5 ([5]; number of patients)
13.4%: Extremity pain % ([5]; % of arm)
30.30%: 6-month progression-free survival (6MPFS) ([2]; phase II)
21: Hypertriglyceridemia Total ([5]; laboratory, number of patients) | Dyspnea Total ([5]; number of patients)
10: Elevated alkaline phosphatise Total ([5]; laboratory, number of patients) | Thrombocytopenia Total ([5]; laboratory, number of patients) | Fever Grade 1/2 ([5]; number of patients) | Headache Grade 1/2 ([5]; number of patients) | Proteinuria Grade 1/2 ([5]; number of patients) | Proteinuria Total ([5]; number of patients) | Taste alteration Grade 1/2 ([5]; number of patients) | Taste alteration Total ([5]; number of patients)
26.9%: Back pain % ([5]; % of arm)
7.5%: Pruritus % ([5]; % of arm)
13: Cough Grade 1/2 ([5]; number of patients) | Lower extremity Grade 1/2 ([5]; number of patients) | Lower extremity Total ([5]; number of patients) | Stomatitis Grade 1/2 ([5]; number of patients)
20.9%: Cough % ([5]; % of arm) | Skin changes % ([5]; % of arm)
11: Headache Total ([5]; number of patients) | Insomnia Grade 1/2 ([5]; number of patients) | Insomnia Total ([5]; number of patients) | Nausea/Vomiting Total ([5]; number of patients) | Skin changes Grade 1/2 ([5]; number of patients)
15: Anorexia Grade 1/2 ([5]; number of patients) | Constipation Grade 1/2 ([5]; number of patients) | Constipation Total ([5]; number of patients) | Rash Grade 1/2 ([5]; number of patients) | Rash Total ([5]; number of patients)
17.8 ng/mL: overall mean concentration [3]
9: Elevated alkaline phosphatise Grade 1/2 ([5]; laboratory, number of patients) | Extremity pain Total ([5]; number of patients) | Nausea/Vomiting Grade 1/2 ([5]; number of patients)
11.9%: Epistaxis/Respiratory tract hemorrhage % ([5]; % of arm) | Elevated AST % ([5]; laboratory, % of arm) | Elevated creatinine % ([5]; laboratory, % of arm) | Hyponatremia % ([5]; laboratory, % of arm)
2: partial responses (number) ([2]; phase II) | Thrombocytopenia Grade 3/4 ([5]; laboratory, number of patients) | Abdominal pain Grade 3/4 ([5]; number of patients) | Fever Grade 3/4 ([5]; number of patients) | Nausea Grade 3/4 ([5]; number of patients) | Nausea/Vomiting Grade 3/4 ([5]; number of patients)

From article PMC4526387 (Clinical cancer research : an official journal of the …, 2015)
